Data as given in ChEMBL document CHEMBL3621195, “Analogues of the marine alkaloids oroidin, clathrodin, and hymenidin induce apoptosis in human HepG2 and THP-1 cancer cells” (Medchemcomm, 2015).

Tests used:
HepG2 [1] = experiment: Induction of apoptosis in human HepG2 cells at 50 uM incubated for 24 hrs by Annexin V-FITC and propidium iodide staining based microcapillary flow cytometry; assay type: functional
THP-1 [2] = experiment: Induction of cell cycle arrest in human THP1 cells assessed accumulation at subG1 phase at 25 uM incubated for 24 hrs by propidium iodide staining based microcapillary flow cytometry (reference value: 2 +/- 1%); assay type: functional
THP-1 [3] = experiment: Induction of apoptosis in human THP1 cells incubated for 24 hrs by Annexin V-FITC and propidium iodide staining based microcapillary flow cytometry; assay type: functional, cell-based; conditions: THP-1, 24 h
HepG2 [4] = experiment: Induction of apoptosis in human HepG2 cells incubated for 24 hrs by Annexin V-FITC and propidium iodide staining based microcapillary flow cytometry; assay type: functional, cell-based; conditions: HepG2, 24 h
THP-1 [5] = experiment: Induction of cell cycle arrest in human THP1 cells assessed accumulation at subG1 phase at 25 uM incubated for 48 hrs by propidium iodide staining based microcapillary flow cytometry (reference value: 2 +/- 1%); assay type: functional
THP-1 [6] = experiment: Induction of apoptosis in human THP1 cells at 50 uM incubated for 24 hrs by Annexin V-FITC and propidium iodide staining based microcapillary flow cytometry; assay type: functional

| SMILES | Activity (HepG2 [1]) [%] | other results |
| --- | --- | --- |
| Cc1c(NC(=O)c2cc3ccccc3o2)cccc1-n1cnnn1 | 45 | – |
| Nc1nc2c(s1)C[C@@H](NC(=O)c1cc3ccccc3[nH]1)CC2 | 27 | – |
| Cl.Cl.Nc1nc2c(s1)C[C@@H](NC(=O)[C@@H]1CCCN1)CC2 | 22 | – |
| Cn1cccc1C(=O)N[C@H]1CCc2nc(N)sc2C1 | 20 | – |
| Nc1nc2c(s1)C[C@@H](NC(=O)c1ccco1)CC2 | 29 | – |
| Nc1nc2c(s1)C[C@@H](NCc1ccc[nH]1)CC2 | 30 | – |
| Nc1nc2c(s1)CC(CNC(=O)c1ccc[nH]1)CC2 (stereo not given) | 20 | – |
| Nc1nc2c(s1)CC(CNC(=O)c1cc(Br)c(Br)[nH]1)CC2 (stereo not given) | 23 | – |
| Nc1nc2c(s1)CC(CNC(=O)c1cc3ccccc3[nH]1)CC2 (stereo not given) | 32 | – |
| CC(C)(C)OC(=O)N1CCC[C@H]1C(=O)NCC1CCc2nc(N)sc2C1 (stereo not given in full) | 23 | – |
| Cl.Cl.Nc1nc2c(s1)CC(CNC(=O)[C@@H]1CCCN1)CC2 (stereo not given in full) | 27 | – |
| Nc1nc2c(s1)C[C@@H](NC(=O)c1ccc[nH]1)CC2 | 23 | – |
| Nc1nc2c(s1)C[C@@H](NC(=O)c1cc(Br)c[nH]1)CC2 | 28 | – |
| Nc1nc2c(s1)C[C@@H](NC(=O)c1cc(Br)c(Br)[nH]1)CC2 | 35 | – |
| CNc1nc(-c2cccc(NC(=O)c3cc4ccccc4[nH]3)c2)cn1C(=O)OC(C)(C)C | 90 | – |
| CC(C)(C)OC(=O)n1cc(-c2ccc(NC(=O)c3ccc[nH]3)cc2)nc1N | 24 | – |
| Cl.Nc1nc(-c2cccc(NC(=O)c3ccc[nH]3)c2)c[nH]1 | 13 | – |
| Cl.Nc1nc(-c2ccc(NC(=O)c3ccc[nH]3)cc2)c[nH]1 | 20 | – |
| CC(C)(C)OC(=O)n1cc(-c2cccc(NC(=O)c3cc[nH]c3)c2)nc1N | 19 | – |
| CC(C)(C)OC(=O)n1cc(-c2cccc(NC(=O)c3cc4ccccc4[nH]3)c2)nc1N | 75 | – |
| CC(C)(C)OC(=O)n1cc(-c2ccc(NC(=O)c3cc4ccccc4[nH]3)cc2)nc1N | 90 | – |
| Cl.Nc1nc(-c2cccc(NC(=O)c3cc4ccccc4[nH]3)c2)c[nH]1 | 77 | – |
| CC(C)(C)OC(=O)n1cc(-c2cccc(NC(=O)c3c[nH]c4ccccc34)c2)nc1N | 62 | – |

| SMILES | Activity (HepG2 [1]) [%] | other results |
| --- | --- | --- |
| Cl.Nc1nc(-c2cccc(NC(=O)c3c[nH]c4ccccc34)c2)c[nH]1 | 55 | – |
| CNc1nc(-c2cccc(NC(=O)c3ccco3)c2)cn1C(=O)OC(C)(C)C | 44 | – |
| CC(C)(C)OC(=O)n1cc(-c2cccc(NC(=O)c3ccc[nH]3)c2)nc1N | 21 | – |
| Cl.Nc1nc(-c2cccc(NC(=O)c3cc4cc(OCc5ccccc5)ccc4[nH]3)c2)c[nH]1 | 50 | – |
| Nc1nc(/C=C/CNC(=O)c2cc3ccccc3[nH]2)c[nH]1 | 36 | – |
| Nc1nc(/C=C/CNC(=O)c2cc3cc(F)ccc3[nH]2)c[nH]1 | 38 | – |
| CC(C)(C)OC(=O)n1cc(-c2cccc(NC(=O)c3cc4cc(OC(F)(F)F)ccc4[nH]3)c2)nc1N | 43 | – |
| CC(C)(C)OC(=O)n1cc(-c2cccc(NC(=O)c3cc4cc(O)ccc4[nH]3)c2)nc1N | 56 | – |
| Cl.Nc1nc(-c2cccc(NC(=O)c3cc4cc(O)ccc4[nH]3)c2)c[nH]1 | 19 | – |
| Cl.Nc1nc(-c2cccc(NC(=O)c3cc4cc(F)ccc4[nH]3)c2)c[nH]1 | 98 | Activity (THP-1 [2]): 36%; EC50 (THP-1 [3]): 23 µM; EC50 (HepG2 [4]): 13 µM; Activity (THP-1 [5]): 41%; Activity (THP-1 [6]): 87% |
| COc1ccc2[nH]c(C(=O)Nc3cccc(-c4c[nH]c(N)n4)c3)cc2c1.Cl | 78 | Activity (THP-1 [2]): 45%; EC50 (THP-1 [3]): 20 µM; EC50 (HepG2 [4]): 18 µM; Activity (THP-1 [5]): 60%; Activity (THP-1 [6]): 87% |
| Cl.Nc1nc(-c2cccc(NC(=O)c3cc4sccc4[nH]3)c2)c[nH]1 | 96 | EC50 (THP-1 [3]): > 50 µM; EC50 (HepG2 [4]): 42 µM; Activity (THP-1 [6]): 12% |
| O=C(Nc1cccc(-c2ccn[nH]2)c1)c1cc2ccccc2[nH]1 | 68 | – |
| Nc1nc(-c2cccc(NC(=O)c3ccc[nH]3)c2)cn1Cc1ccccc1 | 54 | – |
| CC(C)(C)OC(=O)n1cc(-c2ccc(NCc3c[nH]cn3)cc2)nc1N | 39 | – |
| CNC1=NC(c2cccc(NC(=O)c3ccco3)c2)CN1.Cl (stereo not given) | 28 | – |
| Nc1nc(-c2cccc(NCc3ccc[nH]3)c2)cn1Cc1ccccc1 | 86 | – |
| CC(C)(C)OC(=O)n1cc(-c2ccc(NCc3ccc[nH]3)cc2)nc1N | 34 | – |
| CC(C)(C)OC(=O)N1CCC[C@H]1C(=O)Nc1ccc(-c2cn(C(=O)OC(C)(C)C)c(N)n2)cc1 | 20 | – |
| CC(C)(C)OC(=O)N1CCC[C@@H]1C(=O)Nc1ccc(-c2cn(C(=O)OC(C)(C)C)c(N)n2)cc1 | 23 | – |
| COCc1c(C(=O)Nc2cccc(-c3ccn[nH]3)c2)sc2cccc(F)c12 | 65 | – |
| O=C(Nc1cccc(-c2ccn[nH]2)c1)c1ccc2[nH]nnc2c1 | 20 | – |
| Nc1nc(/C=C/CNC(=O)c2cc(Br)c[nH]2)c[nH]1 | 25 | – |

| SMILES | Activity (HepG2 [1]) [%] | other results |
| --- | --- | --- |
| Nc1nc(CCCNC(=O)c2ccc[nH]2)c[nH]1 | 25 | – |
| Nc1nc(/C=C/CNC(=O)c2ccccc2)c[nH]1 | 33 | – |
| COc1ccc2[nH]c(C(=O)Nc3cccc(-c4cn(C(=O)OC(C)(C)C)c(N)n4)c3)cc2c1 | 87 | – |
| CC(C)(C)OC(=O)n1cc(-c2cccc(NC(=O)c3cc4cc(F)ccc4[nH]3)c2)nc1N | 89 | – |
| CC(C)(C)OC(=O)n1cc(-c2cccc(NC(=O)c3cc4sccc4[nH]3)c2)nc1N | 86 | – |
| CNC1=NC(c2cccc(NC(=O)c3ccco3)c2)CN1C(=O)OC(C)(C)C (stereo not given) | 32 | – |
| CC(C)(C)OC(=O)n1cc(-c2cccc(NC(=O)c3cc4cc(OCc5ccccc5)ccc4[nH]3)c2)nc1N | 81 | – |
| CC(C)(C)OC(=O)n1cc(-c2cccc(NC(=O)c3cc4cc(Cl)ccc4[nH]3)c2)nc1N | 91 | – |
| CNC1=NC(c2cccc(NC(=O)c3ccc[nH]3)c2)CN1C(=O)OC(C)(C)C (stereo not given) | 31 | – |
| CNC1=NC(c2cccc(NC(=O)c3cc4ccccc4[nH]3)c2)CN1C(=O)OC(C)(C)C (stereo not given) | 74 | – |
| Cl.Nc1nc(-c2cccc(NC(=O)c3cc[nH]c3)c2)c[nH]1 | 16 | – |
| CNC1=NC(c2cccc(NC(=O)c3ccc[nH]3)c2)CN1.Cl (stereo not given) | 28 | – |
| CNC1=NC(c2cccc(NC(=O)c3cc4ccccc4[nH]3)c2)CN1.Cl (stereo not given) | 27 | – |
| Cl.Cl.Nc1nc(CN2CCN(C(=O)c3ccc[nH]3)CC2)c[nH]1 | 27 | – |
| Cl.Cl.Nc1nc(CN2CCN(Cc3ccc[nH]3)CC2)c[nH]1 | 34 | – |
| Cl.Cl.Cl.Nc1nc(CN2CCN(C(=O)[C@@H]3CCCN3)CC2)c[nH]1 | 28 | – |
| Cl.Cl.Nc1nc(CN2CCN(C(=O)c3cc4ccccc4[nH]3)CC2)c[nH]1 | 32 | – |
| Cl.Cl.Nc1nc(CN2CCN(C(=O)c3c[nH]c4ccccc34)CC2)c[nH]1 | 30 | – |
| Cl.Cl.Nc1nc(CN2CCN(Cc3ccccc3)CC2)c[nH]1 | 32 | – |
| Cl.Cl.Nc1nc(CN2CCN(C(=O)c3cccnc3)CC2)c[nH]1 | 28 | – |
| O=C(c1ccc[nH]1)N1CCN(Cc2c[nH]cn2)CC1 | 23 | – |
| Nc1ncc(CC(=O)N2CCN(C(=O)c3ccc[nH]3)CC2)s1 | 23 | – |
| Nc1ncc(C(=O)N2CCN(C(=O)c3ccc[nH]3)CC2)s1 | 20 | – |

| SMILES | Activity (HepG2 [1]) [%] | other results |
| --- | --- | --- |
| CC(C)(C)OC(=O)n1cc(-c2cccc(NCc3ccc[nH]3)c2)nc1N | 40 | – |
| O=C1CCc2cc(C(=O)Nc3cccc(-c4ccn[nH]4)c3)ccc2N1 | 26 | – |
| Cc1nc(-c2cccc(NC(=O)c3cc4ccccc4[nH]3)c2)cs1 | 57 | – |
| Cl.Cl.Nc1nc(-c2ccc(NC(=O)[C@@H]3CCCN3)cc2)c[nH]1 | 22 | – |
| O=C(Nc1cccc(-c2ccn[nH]2)c1)c1cc2ccccc2o1 | 40 | – |
| O=C(Nc1cccc(-c2ccn[nH]2)c1)c1ccc2[nH]cnc2c1 | 47 | – |
| Cc1cc(C)n2nc(C(=O)Nc3cccc(-c4ccn[nH]4)c3)nc2n1 | 31 | – |
| O=C(Nc1cccc(-c2ccn[nH]2)c1)c1cc2ccccc2c(=O)[nH]1 | 91 | – |
| Cc1nc(-c2cccc(NC(=O)c3cn4ccccc4n3)c2)cs1 | 25 | – |
| CCn1cnnc1-c1cccc(NC(=O)c2cc3ccc(C)cc3[nH]2)c1 | 55 | – |
| O=C(Nc1cccc(-n2cnnn2)c1)c1cc2ccccc2[nH]1 | 56 | – |
| O=C(Nc1cccc(-n2cnnn2)c1)c1cn2ccccc2n1 | 27 | – |
| O=C(NC1CC1)c1cccc(NC(=O)c2cc3c(F)cccc3[nH]2)c1 | 51 | – |
| Cc1cc(=O)[nH]c(-c2cccc(NC(=O)c3ccc(N(C)C)cc3)c2)n1 | 37 | – |
| Cc1ccn2cc(C(=O)Nc3cccc(-c4nnco4)c3)nc2c1 | 6 | – |
| CCn1nnnc1-c1cccc(NC(=O)c2cc3ccccc3[nH]2)c1 | 28 | – |
| O=C(Nc1cccc(-n2cnnn2)c1)c1cc2c(F)cccc2s1 | 39 | – |
| Cc1ccc2cc(C(=O)Nc3cccc(C(N)=O)c3)[nH]c2c1 | 66 | – |
| O=C(Nc1cccc(N2CCCC2=O)c1)c1cc2ccccc2[nH]1 | 43 | – |
| CC(C)(C)OC(=O)N1CCCC1C(=O)Nc1cccc(-c2cn(C(=O)OC(C)(C)C)c(N)n2)c1 (single isomer, unassigned) | 18 | – |
| Cl.Cl.Nc1nc(-c2cccc(NC(=O)C3CCCN3)c2)c[nH]1 (single isomer, unassigned) | 16 | – |
| Nc1ncc(/C=C/CNC(=O)c2ccc[nH]2)[nH]1 [CLATHRODIN] | 27 | – |
| Nc1ncc(/C=C/CNC(=O)c2cc(Br)c(Br)[nH]2)[nH]1 [OROIDIN] | 35 | – |
